Data set [1] is described as follows: Population pharmacokinetic model (joint parent drug-metabolite model; two-compartment model for DOR given on its own). It counts as in vivo, human. To be noted: for Vd/F / Between‐subject variability of V/F: after administration of DEX; for Vd/F: taken as equal for DEX and DOR, read-out: V/F, volume of distribution; for Between‐subject variability of V/F: common to DEX and DOR. As to the method:
Pharmacokinetic/pharmacodynamic analysis (PKPD) of DEX and DOR was conducted using non‐linear mixed effects modelling with Monolix software, 2024R1 (Lixoft SAS, Antony, France). The analysis followed a sequential approach, where the PK parameters of both compounds were estimated initially, and then these were used alongside the cough data to build the PK/PD model. The model components are described below:
A joint parent drug‐metabolite model[26] (Figure 1) was considered for DEX and DOR following administration of DEX with first‐pass effect and without dose apportionment. Different goodness‐of‐fit factors, such as corrected Bayesian information criterion (BICc), various diagnostic plots, such as visual predictive check used for final model selection. This model assumed a one‐compartment model for both compounds and unidirectional transformation of the parent drug to the metabolite in DEX arm of the study. The distribution of DOR after its administration on its own in a separate arm of the study was considered to follow a two‐compartment model. Inter‐individual variability of PK parameters was assumed to be log‐normally distributed. Proportional error model was used to model the intra‐individual variability.
Figure 1 Schematic representation of the joint parent drug‐metabolite structural model with first‐pass effect and without dose‐apportionment used to describe the pharmacokinetics of dextromethorphan and dextrorphan following administration of dextromethorphan. F, bioavailability of the parent drug; DEX dose, dose of dextromethorphan; ka(DORDEX), absorption constant of dextromethorphan; ka(DOR), absorption constant of dextrorphan; kpm, transformation rate constant from parent to metabolite; VDEX and VDOR_DEX are the volume of the central compartment for the dextromethorphan and dextrorphan, respectively which are considered to be equal; k(DEX), elimination rate constant for dextromethorphan by other pathways; k(DOR), the elimination constant of dextrorphan.
As shown, the concentration of DOR formed by the metabolism of DEX is higher than that of the DOR after preformed DOR is administered on its own. The joint parent drug‐metabolite model with first‐pass effect and without dose apportionment best described the plasma concentration‐time profile of DEX and unconjugated DOR following administration of DEX. The two‐compartment model fitted well to the data of DOR from the administration of preformed DOR. The goodness‐of‐fit of the combined models could be seen in the observed versus predicted plots and visual predictive check graphs of the models (Figure 4). […] Since there was not enough data in the absorption phase, the value of first‐order absorption rate constant for both DEX and preformed DOR was fixed to the reported values of 2.6 h^−1 23. To prevent the identifiability problem, equal extravascular apparent volume of distributions were considered for the parent drug and the metabolite in the joint model. It is important to emphasize that the primary focus of this study is on characterizing the PKPD relationship rather than on developing a detailed PK model. While a mechanistic PK model can provide insights, our primary objective can also be achieved using any empirical PK model, provided it adequately describes the data and supports the PKPD link. The selection of a one‐compartment model for DEX and a two‐compartment model for DOR reflects this practical approach and ensures compatibility with the data under different conditions. The disparity of the disposition model for DOR may indicate that formation kinetics from DEX masks the first phase of distribution when assessing the kinetics of formed DOR, whilst this becomes evident under direct administration of DOR.

For data set [2] the following is noted: fixed in the model for DEX and directly administered (preformed) DOR, cited from earlier work.
The subject of data set [3] is antitussive effect (cough). Details: method as in PMID 12848776. Conditions: cited from earlier work.
The conditions of data set [4]: cited from earlier work.
For data set [5] the following is noted: animal study; cited from earlier work.
The mark [6] stands for this setting: both sexes, human, plasma, oral, population estimate.
Setting [7] is: population PK model, direct administration of DOR.
[8] abbreviates: population estimate, after direct administration of DOR.

For orientation: IC50 means the point on the concentration scale where inhibition reaches its midpoint.

Converted amounts (≈) assume the structure as drawn. “And” between values parts separate entries of the source, which are not always exact repeats. Equal values may be shown once. Read-outs that look alike come from different tables or passages of the source. Where only a bound is given, the exact number is not on record here.

As to `COc1ccc2c(c1)[C@]13CCCC[C@@H]1[C@H](C2)N(C)CC3` [DEX, dextromethorphan], in data set [1] (setting [6]), the Vd/F was 4870 L. Further, the k el in data set [1] (both sexes, human, plasma, oral, population estimate, read-out: k(DEX), elimination rate constant for dextromethorphan by other pathways (converted)) is 2.78e-05 s⁻¹. Further, in data set [1] (population PK model), the “Between‐subject variability of k(DEX)” value is reported as 108 CV%, the “Between‐subject variability of kpm” value came out at 43 CV% and the “Between‐subject variability of V/F” value is given as 48 CV%. The “kpm, transformation rate constant from parent (dextromethorphan) to metabolite (dextrorphan)” value in data set [1] (population estimate) was 0.04 h⁻¹. Moreover, the “ka, first-order absorption rate constant (fixed)” value (shortened to “ka … (fixed)”) in data set [2] is 2.6 h^−1 and 2.6 (fixed) h^−1.
Consider `CN1CC[C@@]23CCCC[C@@H]2[C@@H]1Cc1ccc(O)cc13` [DOR, dextrorphan], for which the Vd/F in data set [1] (setting [6]) was 4870 L. In addition, in data set [1] (population PK model), the “Between‐subject variability of k(DOR)” value is given as 32 CV% and the “Between‐subject variability of V/F” value amounted to 48 CV%. For the same molecule, in data set [1] (setting [7]), the “Between‐subject variability of V1/F(DOR)” value stood at 32 CV%, the “Between‐subject variability of k12(DOR)” value turned out to be 196 CV% and the “Between‐subject variability of k21(DOR)” value is 299 CV%. In data set [1] (population estimate), the “k(DOR), elimination constant of dextrorphan” value was 0.2 h⁻¹. Further, in data set [1] (setting [8]), the “V1/F(DOR), volume of the central compartment” value is given as 6984 L; the “k12(DOR), transfer rate constant central to peripheral” value was 0.57 h⁻¹; the “k21(DOR), transfer rate constant peripheral to central” value was 0.60 h⁻¹. For the same molecule, the “Relative potency of DOR compared to DEX” value in data set [3] (modelling of quinidine interaction study, no separate DOR arm) is on record as 38%. In addition, the IC50 in data set [3] (total concentration of DOR (conjugated with glucuronic acid and unconjugated)) is on record as 3.2 ng/mL (≈ 0.0124 µM). In addition, the “ka … (fixed)” value in data set [2] is 2.6 (fixed) h^−1. The “ka … (fixed)” value in data set [2] (listed as preformed DOR) is 2.6 h⁻¹. Besides, the Water solubility in data set [4] is on record as greater than 10 mg/mL. Further, in data set [5], the Antitussive activity result is listed as “good antitussive activity comparable to that of DEX”, the “Tolerability compared with DEX” value was “better tolerability” and the “Toxicity compared with DEX” value is reported as “lower toxicity”.

Values taken from paper PMC12555100, “Dextromethorphan Versus Dextrorphan: A Quantitative Comparison of Antitussive Potency Following Separate Administration of Metabolite” (Journal of Clinical Pharmacology, 2025).
